Tested on: membrane-associated utrophin
Experiment: Cell surface protein biotinylation and utrophin immunoblot, mdx myotubes
Type: cell-based, murine
Settings: 5 μM, 48 hours
Experimental: Myotubes treated for 48 hrs were lysed using RIPA buffer (Thermo Fisher Scientific) containing Halt Protease Inhibitor Cocktail (Thermo Fisher Scientific). Cell lysates in RIPA buffer were rocked for 1 hr at 4° C. and centrifuged at 1,000 RPM for 30 mins at 4° C. The supernatant was collected, quantified for protein concentration using the DC protein assay (Bio-Rad), and normalized to 2 mg/ml in water and Laemmli sample buffer with a final concentration of 10% glycerol (Sigma-Aldrich), 5% beta-mercaptoethanol (Sigma-Aldrich), 3% sodium dodecyl sulfate (Sigma-Aldrich), and 0.05% bromophenol blue (Sigma-Aldrich). For SDS-PAGE, samples were heated to 95° C. for 2 mins before loading 40 μg onto 4-12% tris-glycine or bis-tris polyacrylamide gels (Novex), electrophoresed for 2 hrs at 100 volts at RT, and transferred to a nitrocellulose membrane for 2 hrs at 100 volts at 4° C. Ponceau S staining was performed to visualize protein loading and verify protein transfer. […] Autoradiography films were developed using a SRX-101A tabletop processor (Konica Minolta), scanned to a digital file, and analyzed by densitometry of bands using ImageJ version 1.51 s. […]

CCN(CC)c1ccc2cc(C(=O)Nc3ccc(C(=O)N4CCCCCC4)cc3)c(=O)oc2c1 [OT-9]
increase in membrane-associated utrophin protein: 1.6 fold
